Source: patent US8877741B2, “Pyrrolidine derivatives, pharmaceutical compositions and uses thereof” (Boehringer Ingelheim International GmbH, priority 2013, dated 2014)
pIC50: −log10 of the molar value.

Biological target: human ACC2 (Homo sapiens (Human), UniProt O00763)
Assay: ACC2 assay, spectrophotometric 384 well assay (NADH-linked kinetic method)
Assay type: biochemical
Settings: human ACC2 construct lacking the 128 N-terminal amino acids; coupled lactate dehydrogenase/pyruvate kinase reaction, 340 nm, 25° C.
How it was run: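 ADP formation was monitored as NADH consumption at 340 nm for 15 min at 25 °C, using baculovirus-expressed human ACC2 missing its first 128 amino acids, with 500 μM ATP and 2000 μM each of acetyl-CoA and NADH (final). IC50 was fitted by non-linear regression on low-control-subtracted slopes.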

human ACC2, sequence (O00763 129-2458): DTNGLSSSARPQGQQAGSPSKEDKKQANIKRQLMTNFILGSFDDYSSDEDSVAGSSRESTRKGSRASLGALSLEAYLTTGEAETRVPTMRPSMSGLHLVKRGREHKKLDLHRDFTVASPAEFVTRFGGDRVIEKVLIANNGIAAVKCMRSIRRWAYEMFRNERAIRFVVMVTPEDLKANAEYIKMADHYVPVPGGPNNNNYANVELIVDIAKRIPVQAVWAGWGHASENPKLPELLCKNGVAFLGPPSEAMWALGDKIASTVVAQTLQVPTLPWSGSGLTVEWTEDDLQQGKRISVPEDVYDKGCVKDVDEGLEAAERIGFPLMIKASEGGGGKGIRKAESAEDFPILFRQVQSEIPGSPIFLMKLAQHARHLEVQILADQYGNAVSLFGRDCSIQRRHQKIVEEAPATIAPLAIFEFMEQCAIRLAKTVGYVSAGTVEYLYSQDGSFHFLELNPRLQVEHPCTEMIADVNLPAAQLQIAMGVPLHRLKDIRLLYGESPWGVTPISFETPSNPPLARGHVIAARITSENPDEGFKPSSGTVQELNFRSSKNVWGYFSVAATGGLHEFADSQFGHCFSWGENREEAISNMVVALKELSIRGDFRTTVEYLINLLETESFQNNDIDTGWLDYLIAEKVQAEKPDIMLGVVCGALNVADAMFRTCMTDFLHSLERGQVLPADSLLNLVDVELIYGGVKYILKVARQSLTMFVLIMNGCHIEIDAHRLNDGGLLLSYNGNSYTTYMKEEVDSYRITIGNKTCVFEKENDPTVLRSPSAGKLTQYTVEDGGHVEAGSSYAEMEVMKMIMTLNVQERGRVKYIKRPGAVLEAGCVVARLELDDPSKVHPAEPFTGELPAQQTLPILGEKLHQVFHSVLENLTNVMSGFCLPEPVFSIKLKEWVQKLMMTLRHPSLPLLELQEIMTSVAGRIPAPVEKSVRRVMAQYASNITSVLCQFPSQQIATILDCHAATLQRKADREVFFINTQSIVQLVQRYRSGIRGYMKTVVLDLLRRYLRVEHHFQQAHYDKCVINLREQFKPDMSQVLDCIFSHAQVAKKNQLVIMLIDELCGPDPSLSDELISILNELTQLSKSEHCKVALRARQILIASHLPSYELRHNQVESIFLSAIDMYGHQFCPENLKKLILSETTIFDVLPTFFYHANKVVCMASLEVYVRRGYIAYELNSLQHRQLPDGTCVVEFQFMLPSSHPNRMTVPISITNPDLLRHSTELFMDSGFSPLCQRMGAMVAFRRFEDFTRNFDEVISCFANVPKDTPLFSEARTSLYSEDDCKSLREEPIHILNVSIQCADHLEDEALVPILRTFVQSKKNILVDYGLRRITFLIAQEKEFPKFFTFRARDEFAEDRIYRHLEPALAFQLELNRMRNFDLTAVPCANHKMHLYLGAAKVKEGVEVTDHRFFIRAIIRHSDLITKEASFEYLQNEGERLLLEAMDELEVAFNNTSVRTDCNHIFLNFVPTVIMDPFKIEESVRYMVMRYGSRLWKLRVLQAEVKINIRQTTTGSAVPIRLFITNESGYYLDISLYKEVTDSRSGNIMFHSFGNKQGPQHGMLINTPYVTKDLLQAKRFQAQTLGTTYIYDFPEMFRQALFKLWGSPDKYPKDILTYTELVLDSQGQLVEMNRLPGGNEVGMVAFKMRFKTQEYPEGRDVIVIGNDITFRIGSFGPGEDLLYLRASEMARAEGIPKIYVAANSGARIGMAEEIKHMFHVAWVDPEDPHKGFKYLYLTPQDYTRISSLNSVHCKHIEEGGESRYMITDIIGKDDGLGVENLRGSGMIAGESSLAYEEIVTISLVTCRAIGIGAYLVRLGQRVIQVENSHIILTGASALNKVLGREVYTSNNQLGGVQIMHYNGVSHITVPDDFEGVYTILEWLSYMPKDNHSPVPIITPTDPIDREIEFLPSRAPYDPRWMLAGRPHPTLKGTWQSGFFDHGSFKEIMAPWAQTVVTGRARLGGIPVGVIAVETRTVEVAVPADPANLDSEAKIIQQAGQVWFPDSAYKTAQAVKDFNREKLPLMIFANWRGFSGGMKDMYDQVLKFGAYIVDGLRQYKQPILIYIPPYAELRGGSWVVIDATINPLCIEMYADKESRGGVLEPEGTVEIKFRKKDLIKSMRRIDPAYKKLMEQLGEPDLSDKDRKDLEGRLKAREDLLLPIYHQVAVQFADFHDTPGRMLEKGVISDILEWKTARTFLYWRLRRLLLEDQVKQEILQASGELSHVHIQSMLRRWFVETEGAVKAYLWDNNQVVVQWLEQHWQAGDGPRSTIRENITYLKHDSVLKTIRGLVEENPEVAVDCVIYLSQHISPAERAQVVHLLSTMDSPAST

| Structure (SMILES) | pIC50 |
| --- | --- |
| CCC(=O)Nc1nc(C)c(C(=O)N[C@@H](C)c2ccc(O[C@@H]3CCN(c4ccnc(NCC(F)F)c4Cl)C3)cc2)s1 [Example 1.143] | 6.94 |
| CC(=O)N[C@@H](C)c1ccc(O[C@@H]2CCN(c3ccnc(OCC(C)C)c3)C2)cc1 [Example 9.2] | 7.39 |
| CC(=O)N[C@@H](C)c1ccc(O[C@@H]2CCN(c3ccnc(N(C)C(C)C)c3F)C2)cc1 [Example 1.111] | 6.95 |
| CC(=O)NC1CCN(C(=O)N[C@@H](C)c2ccc(OC3CCN(c4ccc(OCC5CC5(F)F)cn4)C3)cc2)C1 (stereo partly drawn) [Example 3.19] | 5.84 |
| CC(=O)N[C@@H](C)c1ccc(OC2CCN(c3ncc(OCCC4CC4)cc3F)C2)cc1 (stereo partly drawn) [Example 1.34] | 6.36 |
| CC(=O)N[C@@H](C)c1ccc(O[C@@H]2CCN(c3ccnc(OCCC4CC4)c3)C2)cc1 [Example 9.14] | 7.12 |
| CC(=O)N[C@@H](C)c1ccc(OC2CCN(c3ccc(OC(C)C)nc3)C2)cc1 (stereo partly drawn) [Example 1.10] | 6.08 |
| C[C@H](NC(=O)N(C)C)c1ccc(OC2CCN(c3ncc(OCC4CC4(F)F)cc3F)C2)cc1 (stereo partly drawn) [Example 1.55] | 6.81 |
| CCCOc1ccc(N2CCC(Oc3ccc([C@H](C)NC(C)=O)cc3)C2)nc1 (stereo partly drawn) [Example 1.2] | 6.84 |
| C[C@H](NC(=O)c1cncnc1)c1ccc(OC2CCN(c3ccnc(OCC4CC4)c3)C2)cc1 (stereo partly drawn) [Example 2.79] | 6.34 |
| CC(=O)Nc1nc(C)c(C(=O)N[C@@H](C)c2ccc(O[C@@H]3CCN(c4ccc(OCC5CC5(F)F)cn4)C3)cc2)s1 (stereo partly drawn) [Example 2.1, 2-Acetamido-N—((1S)-1-(4-((3R)-1-(5-((2,2-difluorocyclopropyl)methoxy)pyridin-2-yl)pyrrolidin-3-yloxy)phenyl)ethyl)-4-methylthiazole-5-carboxamide] | 7.60 |
| CC(=O)N[C@@H](C)c1ccc(OC2CCN(c3ccc(OCC(C)(C)F)cn3)C2)cc1 (stereo partly drawn) [Example 1.87] | 6.17 |
| CC(=O)N[C@@H](C)c1ccc(OC2CCN(c3ccc(OCCC(F)(F)F)cn3)C2)cc1 (stereo partly drawn) [Example 1.29] | 6.89 |
| COCC(=O)Nc1nc(C)c(C(=O)N[C@@H](C)c2ccc(OC3CCN(c4ccnc(OCC5CC5)c4)C3)cc2)s1 (stereo partly drawn) [Example 2.75] | 7.41 |
| CC(=O)N[C@@H](C)c1ccc(OC2CCN(c3cccc(C4CCC4)n3)C2)cc1 (stereo partly drawn) [Example 1.86] | 7.05 |
| C[C@H](NC(=O)C1CC1)c1ccc(O[C@@H]2CCN(c3ccnc(OCC(F)F)c3)C2)cc1 [Example 9.42] | 6.40 |
| C[C@H](NC(=O)N1CCOCC1)c1ccc(OC2CCN(c3ccnc(OCC4CC4(F)F)c3F)C2)cc1 (stereo partly drawn) [Example 5.5] | 6.51 |
| CCCN(C)c1nc(N2CC[C@@H](Oc3ccc([C@H](C)NC(C)=O)cc3)C2)c(F)cc1F [Example 10.7] | 6.30 |
| CC(=O)N[C@@H](C)c1ccc(OC2CCN(c3ccc(OC4CCCC4)cn3)C2)cc1 (stereo partly drawn) [Example 1.27] | 7.15 |
| CC(=O)N[C@@H](C)c1ccc(O[C@@H]2CCN(c3cccc(N(C)CC(C)O)n3)C2)cc1 (stereo partly drawn) [Example 10.35] | 6.07 |
| CCNC(=O)N[C@@H](C)c1ccc(OC2CCN(c3ccnc(OCC4CC4)c3)C2)cc1 (stereo partly drawn) [Example 3.4] | 7.12 |
| CCN(CC)c1nccc(N2CC[C@@H](Oc3ccc([C@H](C)NC(C)=O)cc3)C2)c1F [Example 10.19] | 7.46 |
| CC(=O)N[C@@H](C)c1ccc(O[C@@H]2CCN(c3ccnc(OCc4cccc(F)c4)c3)C2)cc1 [Example 9.9] | 6.85 |
| COC[C@H]1CCCN1c1cccc(N2CC[C@@H](Oc3ccc([C@H](C)NC(C)=O)cc3)C2)n1 [Example 10.41] | 5.99 |
| CC(=O)N[C@@H](C)c1ccc(O[C@@H]2CCN(c3ccnc(OCC(C)(C)C)c3)C2)cc1 [Example 9.29] | 7.52 |
| CC[C@H](C)Oc1cc(N2CC[C@@H](Oc3ccc([C@H](C)NC(C)=O)cc3)C2)ccn1 [Example 9.27] | 7.26 |

| Structure (SMILES) | pIC50 |
| --- | --- |
| CC(=O)N[C@@H](C)c1ccc(OC2CCN(c3cccc(C(C)C)n3)C2)cc1 (stereo partly drawn) [Example 1.63] | 7.26 |
| CC(=O)N[C@@H](C)c1ccc(O[C@@H]2CCN(c3ccnc(N4CCCC4)c3Cl)C2)cc1 [Example 1.148] | 7.33 |
| CC(=O)N[C@@H](C)c1ccc(O[C@@H]2CCN(c3cc(OCC(F)F)ncc3F)C2)cc1 [Example 9.70] | 6.91 |
| C=C(C)COc1cc(N2CC[C@@H](Oc3ccc([C@H](C)NC(C)=O)cc3)C2)ccn1 [Example 9.17] | 7.11 |
| CC(=O)N[C@@H](C)c1ccc(O[C@@H]2CCN(c3cccc(N4CCC(C)(O)C4)n3)C2)cc1 (stereo partly drawn) [Example 10.47] | 6.34 |
| CC(=O)N[C@@H](C)c1ccc(O[C@@H]2CCN(c3ccnc(NCC4(O)CCC4)c3F)C2)cc1 [Example 10.50] | 7.28 |
| CCN(C)c1nccc(N2CC[C@@H](Oc3ccc([C@H](C)NC(C)=O)cc3)C2)c1F [Example 10.14] | 7.35 |
| C[C@H](NC(=O)c1cn[nH]c1)c1ccc(OC2CCN(c3ccnc(OCC(F)F)c3)C2)cc1 (stereo partly drawn) [Example 2.99] | 7.07 |
| CC(=O)N[C@@H](C)c1ccc(O[C@@H]2CCN(c3cccc(C(F)(F)F)n3)C2)cc1 [Example 8.1, N—((S)-1-(4-((R)-1-(6-(Trifluoromethyl)pyridin-2-yl)pyrrolidin-3-yloxy)phenyl)ethyl)acetamide] | 7.21 |
| CCN(C)C(=O)N[C@@H](C)c1ccc(OC2CCN(c3ccnc(OCC4CC4)c3)C2)cc1 (stereo partly drawn) [Example 3.6] | 6.96 |
| CCOc1cnc(N2CCC(Oc3ccc([C@H](C)NC(C)=O)cc3)C2)c(F)c1 (stereo partly drawn) [Example 1.9] | 6.25 |
| CC(=O)N[C@@H](C)c1ccc(OC2CCN(c3ccnc(Oc4cccnc4)c3)C2)cc1 (stereo partly drawn) [Example 1.68] | 6.45 |
| C[C@H](NC(=O)c1ccnc(F)c1)c1ccc(OC2CCN(c3cccc(C(F)(F)F)n3)C2)cc1 (stereo partly drawn) [Example 2.44] | 6.00 |
| CC(=O)N[C@@H](C)c1ccc(O[C@@H]2CCN(c3ccnc(N4CCCCC4)c3F)C2)cc1 [Example 1.102] | 7.21 |
| CC(C)Oc1cc(N2CCC(Oc3ccc([C@H](C)NC(=O)C4CCC4)cc3)C2)ccn1 (stereo partly drawn) [Example 2.25] | 6.25 |
| C[C@H](NC(=O)c1cnco1)c1ccc(OC2CCN(c3ccnc(OCC(F)F)c3)C2)cc1 (stereo partly drawn) [Example 2.111] | 6.97 |
| COc1cccc(N2CCC(Oc3ccc([C@H](C)NC(C)=O)cc3)C2)n1 (stereo partly drawn) [Example 1.57] | 6.17 |
| Cc1nnsc1C(=O)N[C@@H](C)c1ccc(OC2CCN(c3cccc(C(F)(F)F)n3)C2)cc1 (stereo partly drawn) [Example 2.53] | 6.50 |
| CC(=O)N[C@@H](C)c1ccc(OC2CCN(c3nc(C)ccc3F)C2)cc1 (stereo partly drawn) [Example 1.44] | 6.59 |
| CC(=O)N[C@@H](C)c1ccc(O[C@@H]2CCN(c3ccnc(OCc4ccc(F)cc4)c3)C2)cc1 [Example 9.6] | 7.05 |
| CC(C)Oc1cc(N2CCC(Oc3ccc([C@H](C)NC(=O)c4ccncc4)cc3)C2)ccn1 (stereo partly drawn) [Example 2.9] | 6.06 |
| CC(=O)N[C@@H](C)c1ccc(O[C@@H]2CCN(c3ccnc(N(C)C4CCCC4)c3)C2)cc1 [Example 10.9] | 6.07 |
| COC(C)(C)COc1nccc(N2CC[C@@H](Oc3ccc([C@H](C)NC(C)=O)cc3)C2)c1Cl [Example 9.79] | 6.88 |
| CC(=O)N[C@@H](C)c1ccc(O[C@@H]2CCN(c3cccc(N(C)C[C@H]4CCCO4)n3)C2)cc1 [Example 10.45] | 6.78 |
| CC(=O)N[C@@H](C)c1ccc(O[C@@H]2CCN(c3nc(N(C)C)ccc3F)C2)cc1 [Example 10.18] | 6.07 |
